According to publication PMC10384562, “Synthesis and Structure Determination of Substituted Thiazole Derivatives as EGFR/BRAF^V600E Dual Inhibitors Endowed with Antiproliferative Activity” (Pharmaceuticals, 2023):
Like-named read-outs stand apart in the source and are kept apart here.

How the values were obtained:
[1] = test system: lung cancer (A-549) cell line; test: Antiproliferative assay, A-549; assay type: cell-based; conditions: Homo sapiens, A549; A-549 lung cancer cells; read-out: Antiproliferative Activity IC50 ± SEM, A-549
Method: (§1) 4.2.1.2. Assay for antiproliferative effect
(§2) To explore the antiproliferative potential of compounds propidium iodide fluorescence assay was performed using different cell lines such as Panc-1 (pancreas cancer cell line), MCF-7 (breast cancer cell line), HT-29 (colon cancer cell line) and A-549 (epithelial cancer cell line), respectively. To calculate the total nuclear DNA, a fluorescent dye (propidium iodide, PI) is used which can attach to the DNA, thus offering a quick and precise technique. PI cannot pass through the cell membrane and its signal intensity can be considered as directly proportional to quantity of cellular
(§3) DNA. Cells whose cell membranes are damaged or have changed permeability are counted as dead ones. The assay was performed by seeding the cells of different cell lines at a density of 3000-7500 cells/well (in200μl medium) in culture plates followed by incubation for 24h at 37 °C in humidified 5%CO2/95% air atmospheric conditions.
(§4) The medium was removed; the compounds were added to the plates at 10 μM concentrations (in 0.1% DMSO) in triplicates, followed by incubation for 48h. DMSO (0.1%) was used as control. After incubation, medium was removed followed by the addition of PI (25 μl, 50μg/mL in water/medium) to each well of the plates. At -80 °C, the plates were allowed to freeze for 24 h, followed by thawing at 25 °C. A fluorometer (Polar-Star BMG Tech) was used to record the readings at excitation and emission wavelengths of 530 and 620 nm for each well. The percentage cytotoxicity of compounds was calculated using the following formula:
(§5) Where ATC= Absorbance of treated cells and AC= Absorbance of control. Erlotinib was used as positive control in the assay.
(§6) (1 picture or pasted object on this page, not shown here)

[2] = test system: breast cancer (MCF-7) cell line; test: Antiproliferative assay, MCF-7; assay type: cell-based; conditions: Homo sapiens, MCF7; MCF-7 breast cancer cells; read-out: Antiproliferative Activity IC50 ± SEM, MCF-7
Method: as §1, §2, §3, §4, §5

[3] = test system: four human cancer cell lines (A-549, MCF-7, Panc-1, HT-29); test: Antiproliferative assay, average over four cancer cell lines (GI50); assay type: cell-based; conditions: for IC50: average IC50 (GI50) over A-549, MCF-7, Panc-1, HT-29; for fold less potent than compound 3f (GI50): ratio of GI50 to that of 3f
Method: as §1
To explore the antiproliferative potential of compounds propidium iodide fluorescence assay was performed using different cell lines such as Panc-1 (pancreas cancer cell […]
(epithelial cancer cell line), respectively. To calculate the total nuclear DNA, a fluorescent dye (propidium iodide, PI) is used which can attach to the DNA, thus offering a quick and precise technique. PI cannot pass through the cell membrane and its signal intensity can be considered as directly proportional to quantity of cellular
DNA. Cells whose cell membranes are damaged or have changed permeability are counted as dead ones. The assay was performed by seeding the cells of different cell lines at a density of 3000-7500 cells/well (in200μl medium) in culture plates followed […]
as §4
Where ATC= Absorbance of treated cells and AC= Absorbance of control. […]
was used as positive control in the assay.
as §6

[4] = test system: colon cancer (HT-29) cell line; test: Antiproliferative assay, HT-29; assay type: cell-based; conditions: Homo sapiens; HT-29 colon cancer cells; read-out: Antiproliferative Activity IC50 ± SEM, HT-29
Method: as §1, §2, §3, §4, §5

[5] = test system: pancreatic cancer (Panc-1) cell line; test: Antiproliferative assay, Panc-1; assay type: cell-based; conditions: Homo sapiens; Panc-1 pancreatic cancer cells; read-out: Antiproliferative Activity IC50 ± SEM, Panc-1
Method: as §1, §2, §3, §4, §5

[6] = in vitro; conditions: human
[7] = target: T1, EGFR (Homo sapiens, UniProt P00533); test: EGFR-TK inhibitory assay; assay type: biochemical; conditions: for fold less potent than erlotinib (EGFR IC50): ratio of EGFR IC50 to that of erlotinib; for IC50: read-out: EGFR Inhibition IC50 ± SEM
T1 construct: CD, amino acids 645–1186); His6 (N); made in house; host or cells: Sf-9 insect cells (baculovirus; pBlueBacHis2B / pFASTBacHTc
T1 sequence (P00533 669-1210): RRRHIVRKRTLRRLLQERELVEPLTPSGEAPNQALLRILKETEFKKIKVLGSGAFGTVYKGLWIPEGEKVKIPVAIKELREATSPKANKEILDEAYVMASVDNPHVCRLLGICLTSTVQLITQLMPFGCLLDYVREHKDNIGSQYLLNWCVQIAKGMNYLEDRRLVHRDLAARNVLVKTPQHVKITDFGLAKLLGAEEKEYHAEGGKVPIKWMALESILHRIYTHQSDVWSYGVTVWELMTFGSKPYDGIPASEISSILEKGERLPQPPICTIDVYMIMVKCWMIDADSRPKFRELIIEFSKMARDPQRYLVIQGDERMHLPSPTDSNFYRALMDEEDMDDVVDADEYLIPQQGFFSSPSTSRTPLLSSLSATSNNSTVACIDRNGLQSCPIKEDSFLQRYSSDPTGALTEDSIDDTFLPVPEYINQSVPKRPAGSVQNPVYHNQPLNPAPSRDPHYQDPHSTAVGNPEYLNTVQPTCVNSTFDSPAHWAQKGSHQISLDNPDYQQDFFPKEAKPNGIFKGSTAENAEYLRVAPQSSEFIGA
Method: 4.2.2. EGFR inhibitory assay
Baculoviral expression vectors including pBlueBacHis2B and pFASTBacHTc were […]
5ʹ upstream to the EGFR sequence comprised a sequence that encoded (His)6. Sf-9 cells were infected for 72h for protein expression. The pellets of Sf-9 cells were solubilized in a buffer containing sodium vanadate (100 μM), aprotinin (10 μg/mL), triton (1%), HEPES buffer(50mM), ammonium molybdate (10 μM), benzamidine HCl (16 μg/mL), NaCl (10 mM),leupeptin (10 μg/mL) and pepstatin (10 μg/mL) at 0°C for 20 min at pH 7.4, followed by centrifugation for 20 min. To eliminate the nonspecifically bound material, a Ni-NTA super flow packed column was used to pass through and wash the crude extract supernatant first with 10mM and then with 100 mM imidazole. Histidine-linked proteins were first eluted with 250 and then with 500 mM imidazole subsequent to dialysis against NaCl (50 mM), HEPES (20 mM), glycerol (10%) and 1 μg/mL each of aprotinin, leupeptin and pepstatin for 120 min. The purification was performed either at 4 °C or on ice. To record autophosphorylation level, EGFR kinase assay was carried out on the basis of DELFIA/Time-Resolved Fluorometry. The compounds were first dissolved in DMSO […]
pH 7.4. Each compound (10 μL) was incubated with recombinant enzyme (10 μL, 5 ng for EGFR, 1:80 dilution in 100 mM HEPES) for 10 min at 25 °C, subsequent to the addition of 5X buffer (10 μL, containing 2 mM MnCl2, 100 μM Na3VO4, 20 mM HEPES and 1 mM DTT) and ATP-MgCl2 (20 μL, containing 0.1 mM ATP and 50 mM MgCl2) and incubation for 1h. The negative and positive controls were included in each plate by the incubation of enzyme either with or without ATP-MgCl2. The liquid was removed after incubation and the plates were washed thrice using wash buffer.
Europium-tagged antiphosphotyrosine antibody (75 μL, 400 ng) was added to each well followed by incubation of 1h and then washing of the plates using buffer. The enhancement solution was added to each well and the signal was recorded at excitation […]
The autophosphorylation percentage inhibition by compounds was calculated using the following equation: […]

[8] = Cell viability assay (MTT) on normal mammary epithelial cells; conditions: human, MCF-10A mammary gland epithelial cells
[9] = target: T2, BRAF^V600E (Mus musculus, UniProt P28028, V585E); test: BRAF^V600E inhibitory assay; assay type: biochemical; conditions: read-out: BRAF^V600E Inhibition IC50 ± SEM
T2 construct: Mouse full-length GST-tagged BRAFV600E (7.5 ng,; GST; purchased Invitrogen PV3849
T2 sequence (P28028 whole entry V585E): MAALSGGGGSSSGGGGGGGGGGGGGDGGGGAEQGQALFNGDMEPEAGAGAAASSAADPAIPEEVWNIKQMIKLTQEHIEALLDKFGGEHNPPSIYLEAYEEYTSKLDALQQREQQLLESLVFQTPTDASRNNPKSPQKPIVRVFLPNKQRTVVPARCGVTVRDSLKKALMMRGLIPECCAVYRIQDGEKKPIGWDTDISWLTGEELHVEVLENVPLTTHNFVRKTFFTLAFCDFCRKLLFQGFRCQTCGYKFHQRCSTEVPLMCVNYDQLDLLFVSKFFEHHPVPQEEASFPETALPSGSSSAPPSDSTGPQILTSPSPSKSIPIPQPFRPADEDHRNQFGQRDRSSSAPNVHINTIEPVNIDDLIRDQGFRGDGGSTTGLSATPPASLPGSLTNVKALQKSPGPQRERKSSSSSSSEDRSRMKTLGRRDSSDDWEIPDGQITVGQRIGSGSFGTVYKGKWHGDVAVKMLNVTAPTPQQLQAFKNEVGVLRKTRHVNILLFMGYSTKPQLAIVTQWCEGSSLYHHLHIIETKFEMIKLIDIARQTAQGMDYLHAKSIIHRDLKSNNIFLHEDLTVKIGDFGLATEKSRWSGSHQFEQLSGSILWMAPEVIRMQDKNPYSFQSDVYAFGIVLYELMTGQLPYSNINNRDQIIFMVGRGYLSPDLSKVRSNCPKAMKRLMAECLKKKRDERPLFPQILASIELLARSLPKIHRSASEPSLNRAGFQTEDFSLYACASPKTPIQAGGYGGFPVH
Method: See Supplementary Information. […]
4.2.3. BRAFV600E inhibitory assay
V600E mutant BRAF kinase assay was performed to investigate the activity of tested compounds against BRAF. Mouse full-length GST-tagged BRAFV600E (7.5 ng, Invitrogen, PV3849) was pre-incubated with drug (1 µL) and assay dilution buffer (4 µL) for 60 min at 25 °C. In assay dilution buffer, a solution (5 µL) containing MgCl2 (30 mM), ATP (200 µM), recombinant human full length (200 ng) […] N-terminal His-tagged MEK1 (Invitrogen) was added to start the assay, subsequent to incubation for 25 min at 25 °C. The assay was stopped using 5X protein denaturing buffer (LDS) solution (5 µL). To further denature the protein, heat (70° C) was applied for 5 min. 4- […]
200 V). 10 µL of each reaction was loaded into the precast plates and electrophoresis was allowed to proceed. After completion of electrophoresis, the front part of the precast gel plate (holding hot ATP) was cut and afterwards cast-off. The dried gel was developed using a phosphor screen. A reaction without active enzyme was used as negative control while that containing no inhibitor served as positive control. […]
4.3. Statistical analysis
Computerized Prism 5 program was used to statistically analyzed data using one-way ANOVA test followed by Tukey’s as post ANOVA for multiple comparison at P ≤.05.
Data were presented as mean ± SEM.

[10] = test system: four evaluated cancer cell lines; parameters: method as in doi:10.1016/j.arabjc.2023.104612; conditions: ref [36]; read-out: GI50 against the four evaluated cancer cell lines; cited from earlier work
[11] = target: T1, EGFR; parameters: method as in doi:10.1016/j.arabjc.2023.104612; conditions: ref [36]; cited from earlier work

SMILES | IC50 [1] [nM] | IC50 [2] [nM] | IC50 ([3]; Homo sapiens) [nM] | fold less potent than compound 3f (GI50) [3] [fold] | IC50 [4] [nM] | IC50 [5] [nM] | viability at 96 h, 50 µM [6] [%] | melting point [°C] | fold less potent than erlotinib (EGFR IC50) [7] [fold] | IC50 [7] [nM] | viability at 96 h, 50 µM [8] [%] | IC50 [9] [nM] | IC50 [3] [nM] | GI50 [10] [nM] | IC50 [11] [nM]
Cc1cs/c(=N\Nc2ccc([N+](=O)[O-])cc2[N+](=O)[O-])n1-c1ccccc1 [Compound 3e, (Z)-2-(2-(2,4-Dinitrophenyl)Hydrazineylidene)-4-Methyl-3-Phenyl-2,3-Dihydrothiazole] | 71 ± 7 | 74 ± 7 | 72 | 2 | 72 ± 7 | 72 ± 7 | 87 |  |  |  |  |  |  |  | 
C#Cc1cccc(Nc2ncnc3cc(OCCOC)c(OCCOC)cc23)c1 [Erlotinib, reference compound] | 30 ± 3 | 40 ± 3 |  |  | 30 ± 3 | 30 ± 3 |  |  |  |  |  |  |  |  | 
Cc1cs/c(=N\Nc2ccc([N+](=O)[O-])cc2[N+](=O)[O-])n1Cc1ccccc1 [Compound 3a, (Z)-3-Benzyl-2-(2-(2,4-Dinitrophenyl)Hydrazineylidene)-4-Methyl-2,3-Dihydrothiazole] | 45 ± 4 | 49 ± 4 | 48 |  | 48 ± 4 | 48 ± 4 |  | 215 to 217 | 1.15 | 93 ± 8 | 89 | 117 ± 10 |  |  | 
C=CCn1c(C)cs/c1=N\Nc1ccc([N+](=O)[O-])cc1[N+](=O)[O-] [Compound 3c, (Z)-3-Allyl-2-(2-(2,4-Dinitrophenyl)Hydrazineylidene)-4-Methyl-2,3-Dihydrothiazole] | 50 ± 5 | 56 ± 5 | > 50 |  | 54 ± 5 | 54 ± 5 |  | 197 to 198 |  | 98 ± 9 | 90 | 126 ± 11 | 54 |  | 
CCn1c(C)cs/c1=N\NS(=O)(=O)c1ccc(C)cc1 [Compound 3i, (Z)-N′-(3-Ethyl-4-Methylthiazol-2(3H)-Ylidene)-4-Methyl Benzenesulfonohydrazide] | 84 ± 8 | 89 ± 8 | 86 |  | 86 ± 8 | 86 ± 8 |  | 236 to 238 |  |  | 95 |  |  |  | 
Cc1cs/c(=N/Nc2ccc([N+](=O)[O-])cc2[N+](=O)[O-])n1C1CCCCC1 [Compound 3d, (Z)-3-Cyclohexyl-2-(2-(2,4-Dinitrophenyl)Hydrazineylidene)-4-Methyl-2,3-Dihydrothi-Azole] | 43 ± 4 | 47 ± 4 | 46 | 1.3 | 46 ± 4 | 46 ± 4 |  |  | 1.15 | 91 ± 7 | 92 | 112 ± 10 |  |  | 
Cc1ccc(-n2c(C)cs/c2=N/Nc2ccc([N+](=O)[O-])cc2[N+](=O)[O-])cc1 [Compound 3f, (Z)-2-(2-(2,4-Dinitrophenyl)Hydrazineylidene)-4-Methyl-3-(p-Tolyl)-2,3-Dihydrothi-Azole] | 35 ± 3 | 40 ± 3 | 37 |  | 37 ± 3 | 37 ± 3 | 89 |  | 1.1 | 89 ± 7 |  | 93 ± 8 |  |  | 
C=CCn1c(C)cs/c1=N\NS(=O)(=O)c1ccc(C)cc1 [Compound 3h, (Z)-N′-(3-Allyl-4-Methylthiazol-2(3H)-Ylidene)-4-Methyl Benzenesulfonohydrazide] | 63 ± 6 | 68 ± 6 | 65 |  | 65 ± 6 | 65 ± 6 |  | 236 to 238 |  |  | 92 |  |  |  | 
COc1cccc(-n2c(-c3ccccc3)cs/c2=N\c2c[nH]c(=O)[nH]c2=O)c1 [Compound V] |  |  |  |  |  |  |  |  |  |  |  |  |  | 900 | 74 ± 7
CCn1c(C)cs/c1=N\Nc1ccc([N+](=O)[O-])cc1[N+](=O)[O-] [Compound 3b, (Z)-2-(2-(2,4-Dinitrophenyl)Hydrazineylidene)-3-Ethyl-4-Methyl-2,3-Dihydrothiazole] | 78 ± 7 | 82 ± 8 | 80 | 2.2 | 80 ± 8 | 80 ± 8 | 91 |  |  |  |  |  |  |  | 
Cc1ccc(S(=O)(=O)N/N=c2\scc(C)n2-c2ccccc2)cc1 [Compound 3g, (Z)-4-Methyl-N′-(4-Methyl-3-Phenylthiazol-2(3H)-Ylidene) Benzenesulfonohydrazide] | 58 ± 5 | 63 ± 6 | 60 |  | 58 ± 5 | 60 ± 6 |  | 193 to 194 |  |  | 90 |  |  |  | 
